Test results reported in US20050101595A1, “N-containing cycloalkyl-substituted amino-thiazole derivatives and pharmaceutical compositions for inhibiting cell proliferation and methods for their use” (PFIZER INC., priority 2003, published 2005).
Where a name gives a salt, the structure may show the parent alone. Read-outs that look alike come from different tables or passages of the source.

Key:
HCT-116 cell line = assay: Inhibition of cell growth, tetrazolium salt (MTT) assay; assay type: cell-based; settings: for IC50: Homo sapiens, HCT-116, 120 h, MTT, three to five days, read-out: HCT-116 IC50; for HCT-116 % Inhibition at 0.25 μM: 0.25 μM compound
Method in brief: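 First, cells were seeded in McCoy's 5A medium and held 4 h. Next, inhibitor concentrations in 0.5% (v/v) DMSO were applied for three to five days at 37° C, 5% CO2. Finally, after 4 h with 0.2 mg/mL MTT and medium removal, solubilized formazan was measured at 540 nm.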

CDK2/Cyclin A = CDK2/Cyclin A (Homo sapiens, UniProt P24941); assay: Inhibition of CDK2/Cyclin A Retinoblastoma Kinase Activity; assay type: biochemical; settings: for Ki: apparent Ki, CDK2/proteolyzed cyclin A, Rb fragment substrate, 25 μM ATP
Method in brief: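 CDK2 (10 or 19 nM), insect-cell expressed, gel-filtration purified with truncated cyclin A; Rb fragment substrate; 25 μM ATP; 10 mM HEPES pH 7.4, 10 mM MgCl2; 30° C, 60 or 75 min; EDTA stop; phosphocellulose/nitrocellulose capture, phosphorimager. % inhibition vs DMSO control, no-enzyme background subtracted.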

[1] = target: human CDK4 and genetically truncated (1-264) cyclin D3 (Homo sapiens, UniProt P11802); assay: Inhibition of CDK4/Cyclin D Retinoblastoma Kinase Activity; assay type: biochemical; settings: for Ki: apparent Ki, CDK4/truncated cyclin D3, Rb fragment substrate, 25 μM ATP
Chain of human CDK4 and genetically truncated (1-264) cyclin D3 (P11802 whole entry, the tested form may be a part): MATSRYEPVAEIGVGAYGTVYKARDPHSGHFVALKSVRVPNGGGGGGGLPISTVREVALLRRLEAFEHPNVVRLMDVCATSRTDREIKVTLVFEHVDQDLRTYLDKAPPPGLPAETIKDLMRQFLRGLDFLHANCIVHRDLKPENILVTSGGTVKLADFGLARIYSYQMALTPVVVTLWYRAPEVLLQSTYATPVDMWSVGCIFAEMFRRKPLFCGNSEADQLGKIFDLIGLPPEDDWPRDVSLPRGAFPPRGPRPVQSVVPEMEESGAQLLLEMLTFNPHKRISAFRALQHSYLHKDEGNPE
Chain of human CDK4 and genetically truncated (1-264) cyclin D3 (P30281 1-264 partner): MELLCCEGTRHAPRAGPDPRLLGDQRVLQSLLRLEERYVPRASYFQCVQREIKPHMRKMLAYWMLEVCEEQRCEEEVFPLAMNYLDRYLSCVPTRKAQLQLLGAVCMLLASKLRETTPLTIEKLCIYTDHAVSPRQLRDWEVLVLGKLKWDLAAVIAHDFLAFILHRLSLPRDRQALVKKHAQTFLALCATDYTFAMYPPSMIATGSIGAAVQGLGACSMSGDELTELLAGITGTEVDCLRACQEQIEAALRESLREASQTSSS
Method in brief: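 The enzyme complex (5 nM), expressed in co-infected insect cells, was incubated with recombinant Rb fragment, 25 μM radiolabelled ATP and 2% DMSO at 30 °C. Reactions were stopped with EDTA after 20 minutes, or 60 minutes for tight-binding inhibitors. Apparent Ki values came from competitive inhibition fits.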

[2] = 0.1 μM compound, HCT-116, Table 3

Cc1cccc(CNCCS(=O)(=O)N2CCC(Nc3nc(N)c(C(=O)c4c(F)cccc4F)s3)CC2)c1 [Example K41, (4-Amino-2-{1-[2-(3-methyl-benzylamino)-ethanesulfonyl]-piperidin-4-ylamino}-thiazol-5-yl)-(2,6-difluoro-phenyl)-methanone]
IC50 (HCT-116 cell line; first HCT-116 column (c4)): 70 nM
IC50 (HCT-116 cell line; second HCT-116 column (c5)): 170 nM
Ki (CDK2/Cyclin A): 0.63 nM
Ki [1]: 1.9 nM

Nc1nc(NC2CCN(S(N)(=O)=O)CC2)sc1C(=O)c1c(F)cccc1F [Example E4, 4-[4-Amino-5-(2,6-difluoro-benzoyl)-thiazol-2-ylamino]-piperidine-1-sulfonic acid amide]
IC50 (HCT-116 cell line; first HCT-116 column (c4)): 570 nM
IC50 (HCT-116 cell line; second HCT-116 column (c5)): 1200 nM
Ki (CDK2/Cyclin A): 2.7 nM
Ki [1]: 14 nM

Nc1nc(NC2CCN(C(=O)Nc3ccccc3Oc3ccccc3)CC2)sc1C(=O)c1c(F)cccc1F [Example O82]
HCT-116 % Inhibition at 0.25 μM (HCT-116 cell line; HCT-116, Table 2): 34%
CDK2 % Inhibition At 0.03 μM (CDK2/Cyclin A; 0.03 μM compound, Table 2): 34%
CDK4 % Inhibition at 0.03 μM ([1]; 0.03 μM compound, Table 2): 4%

CN(C)CCN(C)c1ccc(C(=O)N2CCC(Nc3nc(N)c(C(=O)c4c(F)cccc4F)s3)CC2)cn1 [Example G32, 1-{4-Amino-2-[1-(1-{6-[(2-dimethylamino-ethyl)-methyl-amino]-pyridin-3-yl}-methanoyl)-piperidin-4-ylamino]-thiazol-5-yl}-1-(2,6-difluoro-phenyl)-methanone Trifluoroacetic Acid Salt]
IC50 (HCT-116 cell line; first HCT-116 column (c4)): 4700 nM
IC50 (HCT-116 cell line; second HCT-116 column (c5)): > 5000 nM
Ki (CDK2/Cyclin A): 60 nM
Ki [1]: 42 nM

Nc1nc(NC2CCN(S(=O)(=O)c3cccc4cccnc34)CC2)sc1C(=O)c1c(F)cccc1F [Example P6]
HCT-116 % Inhibition at 0.1 μM (HCT-116 cell line; [2]): 22%
HCT-116 % Inhibition at 0.25 μM (HCT-116 cell line; HCT-116, Table 3): 23%
CDK2 % Inhibition at 0.03 μM (CDK2/Cyclin A; 0.03 μM compound, Table 3): −32%
CDK4 % Inhibition at 0.03 μM ([1]; 0.03 μM compound, Table 3): 18%

CC1CCC(C(C)C)C(OC(=O)N2CCC(Nc3nc(N)c(C(=O)c4c(F)cccc4F)s3)CC2)C1 (stereo not drawn) [Example R86]
HCT-116 % Inhibition at 0.1 μM (HCT-116 cell line; HCT-116 cells, at 0.1 μM): 0%
HCT-116 5 Inhibition at 0.25 μM (HCT-116 cell line; HCT-116 cells): 34
CDK2 % Inhibition at 0.03 μM (CDK2/Cyclin A; at 0.03 μM): 9%
CDK4 % Inhibition at 0.03 μM ([1]; at 0.03 μM): 9%

CC(C)(C)c1ccc(C(=O)N2CCC(Nc3nc(N)c(C(=O)c4c(F)cccc4F)s3)CC2)cc1 [Example R153]
HCT-116 % Inhibition at 0.1 μM (HCT-116 cell line; HCT-116 cells, at 0.1 μM): 0%
HCT-116 5 Inhibition at 0.25 μM (HCT-116 cell line; HCT-116 cells): 44
CDK2 % Inhibition at 0.03 μM (CDK2/Cyclin A; at 0.03 μM): 37%
CDK4 % Inhibition at 0.03 μM ([1]; at 0.03 μM): 58%

CS(=O)(=O)CS(=O)(=O)N1CCC(Nc2nc(N)c(C(=O)c3c(F)cccc3F)s2)CC1 [Example P53]
HCT-116 % Inhibition at 0.1 μM (HCT-116 cell line; [2]): 21%
HCT-116 % Inhibition at 0.25 μM (HCT-116 cell line; HCT-116, Table 3): 27%
CDK2 % Inhibition at 0.03 μM (CDK2/Cyclin A; 0.03 μM compound, Table 3): −23%
CDK4 % Inhibition at 0.03 μM ([1]; 0.03 μM compound, Table 3): 16%

Nc1nc(NC2CCN(C(=O)n3ccnc3)CC2)sc1C(=O)c1c(F)cccc1F [Example C17, {4-[4-Amino-5-(2,6-difluoro-benzoyl)-thiazol-2-ylamino]-piperidin-1-yl}-imidazol-1-yl-methanone]
IC50 (HCT-116 cell line; first HCT-116 column (c4)): 2100 nM
IC50 (HCT-116 cell line; second HCT-116 column (c5)): 4400 nM
Ki (CDK2/Cyclin A): 17 nM
Ki [1]: 21 nM

Nc1nc(NC2CCN(S(=O)(=O)CCCN3CCC3)CC2)sc1C(=O)c1c(F)cccc1F [Example K19, 1-{4-Amino-2-[1-(3-azetidin-1-yl-propane-1-sulfonyl)-piperidin-4-ylamino]-thiazol-5-yl}-1-(2,6-difluoro-phenyl)-methanone.]
IC50 (HCT-116 cell line; first HCT-116 column (c4)): 810 nM
IC50 (HCT-116 cell line; second HCT-116 column (c5)): > 5000 nM
Ki (CDK2/Cyclin A): 1.3 nM
Ki [1]: 2 nM

Nc1nc(NC2CCN(S(=O)(=O)c3ccc(CNC(=O)c4ccccc4)s3)CC2)sc1C(=O)c1c(F)cccc1F [Example P40]
HCT-116 % Inhibition at 0.1 μM (HCT-116 cell line; [2]): 7%
HCT-116 % Inhibition at 0.25 μM (HCT-116 cell line; HCT-116, Table 3): 33%
CDK2 % Inhibition at 0.03 μM (CDK2/Cyclin A; 0.03 μM compound, Table 3): 61%
CDK4 % Inhibition at 0.03 μM ([1]; 0.03 μM compound, Table 3): 64%

CC(C)(C)c1ccc(C(=O)N2CCC(Nc3nc(N)c(C(=O)c4c(F)cccc4F)s3)CC2)cc1 [Example Q34]
HCT-116 % Inhibition at 0.1 μM (HCT-116 cell line; 0.1 μM compound, HCT-116, Table 4): 1%
HCT-116 % Inhibition at 0.25 μM (HCT-116 cell line; HCT-116, Table 4): 27%
CDK2 % Inhibition at 0.03 μM (CDK2/Cyclin A; 0.03 μM compound, Table 4): 28%
CDK4 % Inhibition at 0.03 μM ([1]; 0.03 μM compound, Table 4): 56%

CN(C)CCCSc1ccc(S(=O)(=O)N2CCC(Nc3nc(N)c(C(=O)c4c(F)cccc4F)s3)CC2)cn1 [Example L5, 1-(4-Amino-2-{1-[6-(3-dimethylamino-propylsulfanyl)-pyridine-3-sulfonyl]-piperidin-4-ylamino}-thiazol-5-yl)-1-(2,6-difluoro-phenyl)-methanone Dihydrochloride.]
IC50 (HCT-116 cell line; first HCT-116 column (c4)): 70 nM
IC50 (HCT-116 cell line; second HCT-116 column (c5)): > 500 nM
Ki (CDK2/Cyclin A): 1.5 nM
Ki [1]: 0.67 nM
